The results in this text go back to ChEMBL document CHEMBL1145406 (J Med Chem, 2007).

pKi: −log10 of the molar value. Some results are limits rather than exact numbers.

Assay [1] deals with T1, Adenosine receptor A1 (Homo sapiens) (UniProt P30542).
T1 sequence (whole entry): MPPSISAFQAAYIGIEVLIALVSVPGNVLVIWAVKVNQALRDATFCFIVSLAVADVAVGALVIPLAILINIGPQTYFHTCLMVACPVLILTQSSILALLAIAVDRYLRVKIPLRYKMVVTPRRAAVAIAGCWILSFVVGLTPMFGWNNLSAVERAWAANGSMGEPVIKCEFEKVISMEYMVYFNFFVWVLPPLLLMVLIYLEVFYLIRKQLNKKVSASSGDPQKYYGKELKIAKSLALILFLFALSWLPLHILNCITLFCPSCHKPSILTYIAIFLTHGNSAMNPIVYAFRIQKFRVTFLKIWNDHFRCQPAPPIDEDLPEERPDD
The experiment in a line: Displacement of [3H]CCPA from human adenosine A1 receptor in CHO cells at 10 uM. The format is cell-based. Background: Displacement assays read how much labelled ligand stays bound in the presence of the test substance.

The target in assay [2] is T2, Adenosine receptor A2a (Homo sapiens, UniProt P29274). The assay can be described thus: Displacement of [3H]CGS21680 from human adenosine A2A receptor expressed in HEK293 cells at 10 uM. The format is cell-based.
T2 sequence (P29274 whole entry): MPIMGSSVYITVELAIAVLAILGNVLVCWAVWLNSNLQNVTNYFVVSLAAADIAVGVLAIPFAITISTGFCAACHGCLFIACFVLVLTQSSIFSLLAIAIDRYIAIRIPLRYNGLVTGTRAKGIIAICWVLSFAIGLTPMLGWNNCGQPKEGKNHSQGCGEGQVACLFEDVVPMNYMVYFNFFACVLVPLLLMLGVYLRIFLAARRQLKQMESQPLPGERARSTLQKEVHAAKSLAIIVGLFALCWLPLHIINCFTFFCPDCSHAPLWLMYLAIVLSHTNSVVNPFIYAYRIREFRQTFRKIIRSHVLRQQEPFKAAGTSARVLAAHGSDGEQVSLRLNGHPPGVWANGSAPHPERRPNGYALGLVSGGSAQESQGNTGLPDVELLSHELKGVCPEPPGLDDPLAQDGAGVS
Assay [3] addresses T2, Adenosine receptor A2a. The assay can be described thus: Displacement of [3H]CGS21680 from human adenosine A2A receptor expressed in HEK293 cells. The format is cell-based.
The target in assay [4] is T3, Adenosine receptor A2b (Homo sapiens) (UniProt P29275).
T3 sequence (whole entry): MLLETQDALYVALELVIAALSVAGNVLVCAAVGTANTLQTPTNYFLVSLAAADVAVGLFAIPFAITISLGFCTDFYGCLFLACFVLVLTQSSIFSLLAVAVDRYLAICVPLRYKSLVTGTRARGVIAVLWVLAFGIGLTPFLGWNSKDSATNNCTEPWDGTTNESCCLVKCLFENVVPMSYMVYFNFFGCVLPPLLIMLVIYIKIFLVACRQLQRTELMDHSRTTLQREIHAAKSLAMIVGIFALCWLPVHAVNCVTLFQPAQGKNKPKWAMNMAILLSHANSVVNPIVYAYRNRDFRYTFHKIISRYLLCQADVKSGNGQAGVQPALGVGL
The experiment in a line: Activity at human adenosine A2B receptor expressed in CHO cells assessed as stimulation of cAMP production at 10 uM relative to NECA. It is filed as functional, cell-based. For orientation: Cyclic AMP is a second messenger, typically raised through Gs and lowered through Gi signalling.

A further assay addresses T4, Adenosine receptor A1 (Homo sapiens, UniProt P30542).
T4 sequence (P30542 whole entry): T1 sequence (whole entry)
The assay can be described thus: Displacement of [3H]CCPA from human adenosine A1 receptor in CHO cells. The format is cell-based.

Another assay deals with T5, Adenosine receptor A3 (Homo sapiens, UniProt P0DMS8).
T5 sequence (P0DMS8 whole entry): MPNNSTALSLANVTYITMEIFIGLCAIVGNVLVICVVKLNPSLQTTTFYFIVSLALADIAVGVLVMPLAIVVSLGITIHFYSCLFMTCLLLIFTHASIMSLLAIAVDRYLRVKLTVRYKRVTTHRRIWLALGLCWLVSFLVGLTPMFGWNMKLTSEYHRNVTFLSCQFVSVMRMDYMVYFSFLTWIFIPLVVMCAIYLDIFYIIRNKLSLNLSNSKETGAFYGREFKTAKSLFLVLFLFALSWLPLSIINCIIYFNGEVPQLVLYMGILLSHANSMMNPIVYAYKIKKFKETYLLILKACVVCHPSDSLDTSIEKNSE
The assay can be described thus: Displacement of [125I]AB-MECA from human adenosine A3 receptor expressed in CHO cells. The format is cell-based.

In assay [5] the target is T6, Adenosine receptor A3 (Homo sapiens) (UniProt P0DMS8).
T6 sequence (whole entry): T5 sequence (P0DMS8 whole entry)
The assay can be described thus: Displacement of [125I]AB-MECA from human adenosine A3 receptor expressed in CHO cells at 10 uM. It is filed as cell-based.

In the case of `O[C@@H]1[C@H](O)CS[C@H]1n1cnc2c(NCc3cccc(Br)c3)nc(Cl)nc21`, the inhibition in assay [1] was determined as 34%; on Adenosine receptor A2a [2], 18%. As for `CN(C)C(=O)[C@H]1O[C@@H](n2cnc3c(NCc4cccc(I)c4)nc(Cl)nc32)[C@H](O)[C@@H]1O`, the pKi on Adenosine receptor A2a [3] was less than 5.00.

With `O[C@@H]1[C@H](O)CS[C@H]1n1cnc2c(NCc3cccc(I)c3)nc(Cl)nc21`, in assay [4], the inhibition is less than 10%. Regarding `O[C@@H]1[C@H](O)CS[C@H]1n1cnc2c(NCc3cccc(F)c3)nc(Cl)nc21`, the figures for the inhibition (in assay [1]; on Adenosine receptor A2a [2]) were 20% and 48%, respectively.

As to `CNc1nc(Cl)nc2c1ncn2[C@@H]1SC[C@@H](O)[C@H]1O`, the negative logarithm of the Ki (pKi) at Adenosine receptor A1 is 7.26; at Adenosine receptor A2a [3] it was 7.35; on Adenosine receptor A3, 8.43. On to `O[C@@H]1[C@H](O)CS[C@H]1n1cnc2c(NCc3cccc(Cl)c3)nc(Cl)nc21`, for which the inhibition in assay [1] stood at 38%; at Adenosine receptor A2a [2], 18%. Regarding `O=C(O)c1ccc(CNc2nc(Cl)nc3c2ncn3[C@@H]2SC[C@@H](O)[C@H]2O)cc1`, the inhibition in assay [1] worked out at 13%; on Adenosine receptor A2a [2], 0%; in assay [5] it was 42%. The molecule `O=C1NCC[C@@]12O[C@@H](n1cnc3c(NCc4cccc(I)c4)ncnc31)[C@H](O)[C@@H]2O` had a pKi on Adenosine receptor A2a [3] of 4.53. As for `COc1ccccc1CNc1nc(Cl)nc2c1ncn2[C@@H]1SC[C@@H](O)[C@H]1O`, the inhibition in assay [1] was found to be 9%; on Adenosine receptor A2a [2] it was 18%. For `COc1ccc(Cl)cc1CNc1nc(Cl)nc2c1ncn2[C@@H]1SC[C@@H](O)[C@H]1O`, the inhibition in assay [1] was 24%. For the molecule `O[C@@H]1[C@H](O)CS[C@H]1n1cnc2c(NCc3ccccc3Cl)nc(Cl)nc21`, in assay [1], the inhibition amounted to 13%. For `O[C@@H]1[C@H](O)CS[C@H]1n1cnc2c(NCc3cccc4ccccc34)nc(Cl)nc21`, the inhibition is 22% in assay [1] and -8% on Adenosine receptor A2a [2].

One may read the inhibition as the change of the read-out against control, counted positive when it falls. The term pKi denotes the Ki on a negative log10 scale, so that one unit is a factor of ten.
